Molecular target: T1, recombinant hPTP1B (human PTP1B, 1-299 aa) (Homo sapiens, UniProt P18031)
T1 construct: without the carboxy-terminal hydrophobic region (corresponding to 1-299 aa); made in house; host or cells: Sf9 insect cells (baculovirus, Bac-to-Bac, pFASTBAC)
T1 sequence (P18031 1-299): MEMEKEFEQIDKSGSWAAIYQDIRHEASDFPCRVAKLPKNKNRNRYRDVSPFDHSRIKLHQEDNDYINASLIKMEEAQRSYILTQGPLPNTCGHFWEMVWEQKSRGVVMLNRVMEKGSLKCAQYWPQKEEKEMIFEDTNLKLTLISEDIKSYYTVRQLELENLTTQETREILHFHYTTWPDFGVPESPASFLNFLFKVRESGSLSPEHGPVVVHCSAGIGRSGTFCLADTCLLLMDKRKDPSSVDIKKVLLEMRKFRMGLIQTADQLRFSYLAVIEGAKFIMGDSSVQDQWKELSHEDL
Test: Enzymatic test systems for detecting inhibition of a phosphatase (in vitro assay)
Format: biochemical
Details: Table 2 does not say which substrate (phosphopeptide or p-nitrophenyl phosphate)
Method: Enzymatic Test Systems for Detecting Inhibition of a Phosphatase
The compounds of the formula I were tested for their phosphatase-inhibiting effect in an in vitro assay. The enzyme preparation and the performance of the assay was carried out as follows.
• Sf9 cells (=Spodoptera frugiperda cell type; obtainable from invitrogen) are cultured in Grace's supplemented medium (Gibco-BRL) with 10% heat-inactivated fetal calf serum (Gibco-BRL) in spinner flasks at 28° C. in accordance with the protocol of Summers and Smith (A Manual for Methods for Baculoviruns Vectors and Insect Culture Procedures [Bulletin No. 15555]. Texas A & M University, Texas Agricultural Experiment Station, College Station, Tex., 1987). • Construction of recombinant Baculovirus transfer vectors: cDNA coding for the regulatory and catalytic domains of human PTP1B, but without the carboxy-terminal hydrophobic region (corresponding to 1-299 aa) was obtained by polymerase chain reaction via primers with attached cloning sites and suitable cDNA templates (obtainable for example from invitrogen) and then cloned into baculovirus expression vectors (Amersham Pharmacia Biotech.). The recombinant baculoviruses were prepared with the aid of the Bac-to-Bac baculovirus expression system (obtainable from Gibco-BRL). The gene was cloned into the pFASTBAC donor plasmid (obtainable from Life Technologies). The resulting plasmid was transformed into competent DH10BAC Escherichia coli cells (obtainable from Life Technologies). After transposition and antibiotic selection, the recombinant plasmid DNA was isolated from selected E. coli colonies and then used for the transfection of Sf9 insect cells. The virus particle in the supernatant medium was amplified three times up to a viral stock volume of 500 ml. B) Production of Recombinant Protein: • Baculovirus infection of a 500 ml spinner culture of Sf9 cells was essentially carried out as described by Summers and Smith (see above). Sf9 cells at a density of 1–3×10^6 cells/ml were pelleted by centrifugation at 300 g for 5 min, the supernatant was removed, and the cells were resuspended in a density of 1×10^7 cells/ml in a suitable recombinant viral stock (MOI 10). After careful shaking at room temperature for 1.5 h, fresh medium was added in order to achieve a cell density of 1×10^6 cells/ml. The cells were then cultured in the suspension at 28° C. for suitable periods after postinfection. C) Cellular Fractionation and Complete Cell Extracts of Infected Sf9 Cells: • After the postinfection, aliquots were subjected to an analysis of protein expression by SDS-PAGE and Western blot analysis. The cellular fractionation was carried out as described (Cromlish, W. and Kennedy, B. Biochem. Pharmacol. 52: 1777–1785, 1996). Complete cell extracts were obtained from 1 ml aliquots of the infected Sf9 cells after certain times postinfection. The pelleted cells (300×g, 5 min) were washed once in phosphate-buffered saline (4° C.), resuspended in 50 μl of water and disrupted by repeated freezing/thawing. Protein concentrations were determined with the aid of the Bradford method and bovine serum albumin as standard. Assay Procedure: A) Dephosphorylation of a Phosphopeptide: • This assay is based on the release of phosphate from a consensus substrate peptide which is detected in the nanomolar concentration range by the malachite green/ammonium molybdate method (Lanzetta, P. A., Alvarez, L. J., Reinach, P. S., Candia, O. A. Anal Biochem. 100: 95–97, 1979) adapted for the microtiter plate format. The dodecatrisphosphopeptide TRDIYETDYYRK (Biotrend, Cologne) corresponds to amino acids 1142–1153 of the catalytic domain of the insulin receptor and is (auto)phosphorylated on tyrosine residues 1146, 1150 and 1151. […]

Compound: O=S1(=O)Cc2cc(Nc3nc(-c4ccc(Cl)c(Cl)c4)cs3)ccc2N1 [Example 2]
- IC50: 27.8 µM

Compound: O=S1(=O)Cc2cc(Nc3nc(-c4ccc5ccccc5c4)cs3)ccc2N1 [Example 3]
- IC50: 8.8 µM

Compound: O=S1(=O)Cc2cc(Nc3nc(-c4ccc(Br)cc4)cs3)ccc2N1 [Example 4]
- IC50: 6.2 µM

Compound: Cc1sc(Nc2ccc3c(c2)CS(=O)(=O)N3)nc1-c1ccccc1 [Example 5]
- IC50: 15.9 µM

Compound: COc1ccc(-c2csc(Nc3ccc4c(c3)CS(=O)(=O)N4)n2)c(OC)c1 [Example 6]
- IC50: 48 µM

Compound: O=S1(=O)Cc2cc(Nc3nc(-c4cccc(Br)c4)cs3)ccc2N1 [Example 7]
- IC50: 7.9 µM

Compound: O=S1(=O)Cc2cc(Nc3nc(-c4ccc(N5CCCC5)cc4)cs3)ccc2N1 [Example 8]
- IC50: 5.9 µM

Compound: COc1cccc(-c2csc(Nc3ccc4c(c3)CS(=O)(=O)N4)n2)c1 [Example 9]
- IC50: 6.3 µM

Compound: Cc1c(-c2csc(Nc3ccc4c(c3)CS(=O)(=O)N4)n2)sc2ccc(Cl)cc12 [Example 10]
- IC50: 5.3 µM

Compound: Cc1c(-c2csc(Nc3ccc4c(c3)CS(=O)(=O)N4)n2)sc2ccccc12 [Example 11]
- IC50: 6.2 µM

Compound: O=S1(=O)Cc2cc(Nc3nc(-c4ccncc4)cs3)ccc2N1 [Example 13]
- IC50: > 80 µM

Compound: CC(C)(C)c1cc(-c2csc(Nc3ccc4c(c3)CS(=O)(=O)N4)n2)cc(C(C)(C)C)c1O [Example 14]
- IC50: 2.77 µM
